Entries after “also recorded” stand apart in the source; their conditions may differ.
Experiments:
[1] = In vivo tolerability of JH-FK-05; set-up: species or system mouse; settings: daily i.p., up to 60 mg/kg
Description: Based on the in vitro evidence of reduced immunosuppressive activity of JH-FK-05, it was hypothesized that this reduction would translate into reduced immunosuppression in an in vivo model. The murine model for immunosuppression measures the T cell-dependent proliferation of two immune cell subtypes in response to immunization with an antigen. Animals were treated daily via intraperitoneal (i.p.) injection with vehicle, 5 mg/kg FK506, or 60 mg/kg JH-FK-05, beginning on day −1 and ending on day 7. […] On day 0, animals were immunized with NP-OVA to stimulate T cell-dependent signaling that would result in proliferation of T follicular helper (Tfh) cells and germinal center (GC) B cells. Animals were sacrificed on day 7, and the proportions of Tfh and GC B cells in the lymph nodes were measured. […]
Groups of 6 female C57BL/6 mice (Jackson Laboratory) were treated daily by intraperitoneal (i.p.) injection with about 100 μL vehicle, 5 mg/kg FK506, or 60 mg/kg JH-FK-05 beginning on day −1. […] Mice were treated and monitored daily until they were sacrificed on day 7. Draining lymph nodes were harvested on day 7, and the populations of T follicular helper cells and GC B cells were analyzed by flow cytometry. Tfh and GC B cells were measured from T Cell Receptor β (TCRβ^+) CD4^+CD44^hi cells and TCRβ^−CD19^+ cells, respectively.

[2] = system: Cryptococcus deneoformans; test: MIC assay (Example 3); format: cell-based; settings: 72 hours with 5 times starting amount of cells
Description: For the lead compound JH-FK-08, the mechanism of action resulting in antifungal activity was tested for conservation of calcineurin inhibition. To probe the JH-FK-08 mechanism of action, MICs of JH-FK-08 were determined with fungal mutants that lack the drug-binding protein FKBP12 or have mutations in the binding site on calcineurin that prevent FKBP12-FK506 binding and inhibition. […] Taken together, these findings support the hypothesis that JH-FK-08 requires FKBP12 for antifungal activity, and the target of the FKBP12-JH-FK-08 complex is calcineurin. The length of time that drugs are active in vivo is critical information relevant to drug development, and the time frame of drug activity can have a drastic impact on treatment regimen and efficacy. Therefore, the pharmacokinetic profiles of FK506 and JH-FK-08 were investigated. Three male and three female CD1 mice were administered a single dose of JH-FK-08 or FK506 at 40 mg/kg. Whole blood samples were taken over a 24-hour period, and the drug concentration remaining in the blood was determined. Pharmacokinetic parameters were calculated using a non-compartmental approach (see, Gabrielsson J, Weiner D. 2012. Methods Mot Biol Clifton NJ 929:377-389). […] When assessing specific pharmacokinetic measures, sex differences began to emerge.
In vitro antifungal activity was assessed for all fungal strains in RPMI 1640 (Sigma-Aldrich R1383). MICs were measured using Clinical and Laboratory Standards Institute (CLSI) M38-A2 and M27-A3 standard in vitro antifungal susceptibility protocols. C. neoformans and A. fumigatus testing was performed at 37° C. MECs for A. fumigatus were recorded after 48 h of growth. C. albicans testing was performed at 30° C. with a uniform concentration of 2 μg/mL of fluconazole to sensitize the cells to calcineurin inhibition.
C. neoformans clinical isolate H99 and congenic-derived strain KN99α were used (see, Nielsen K, et al., 2003. Infect Immun 71:4831-4841). […]

[3] = system: C. neoformans strain H99; test: Survival during cryptococcal infection (Example 3); format: in vivo, Cryptococcus neoformans in A/J mice
Description: Finally, whether the antifungal efficacy translates into extended survival during infection was assessed. To test the impact of treatment on survival, murine survival was monitored in the cryptococcosis infection model. Following the same protocol of infection and dosing as in the fungal burden experiment, animal survival was monitored following infection and 2 weeks of intraperitoneal dosing. Fluconazole treatment extended median survival from 16 to 27 days.
C. neoformans inoculum was prepared by growing a 5-mL overnight YPD culture spinning in a tissue culture roller drum at 30° C. Cells were pelleted by centrifugation and washed in sterile PBS three times. Cell density was determined by hemocytometer, and cells were diluted to 2×10^6 cells/mL. Mice (10 to 20 g) were infected with 10^5 cells of C. neoformans H99. For inhalation infection, animals were anesthetized with isoflurane before 50 μL of inoculum was pipetted onto the upright nasal passages of each animal. Following inhalation of the inoculum, animals were monitored for post anesthesia recovery. Treatment of animals began 4 hours post infection and was continued for 14 days. Fungal burden was assessed 24 h after the final dose.
For survival curve analysis, animals were monitored until reaching defined humane end points, including social isolation, hunched posture, weight loss, lack of grooming, and labored breathing, and were then euthanized via CO2 inhalation. For fungal burden analysis, mice were euthanized following 2 weeks of treatment with a designated antifungal, vehicle, or combination. Brain, lung, and spleen were harvested from animals, weighed, and homogenized in sterile PBS using steel beads and a bead beater. Each organ homogenate was serially diluted 10-fold to 10-4 in PBS. One hundred microliters of each dilution was plated on YPD plates supplemented with YPD 50 μg/mL ampicillin and 30 μg/mL chloramphenicol, incubated at 30° C. for 2 days, and assessed for colony-forming units. CFU per organ weight was calculated and plotted using GraphPad Prism 9.

[4] = system: Aspergillus fumigatus (akuBKu80 hFKBP12); settings: previously shown; cited from earlier work

CC[C@@H]1/C=C(\C)C[C@H](C)C[C@H](OC)[C@H]2O[C@@](O)(C(=O)C(=O)N3CCCC[C@H]3C(=O)O[C@H](/C(C)=C/[C@@H]3CC[C@@H](O)[C@H](OC)C3)[C@H](C)[C@@H](O)C/C1=N/NC(C)=O)[C@H](C)C[C@@H]2OC [JH-FK-05]
tolerability [1]: tolerated at a dose as high as 60 mg/kg; also recorded: well tolerated by animals throughout the course of treatment; also recorded: animals tolerated JH-FK-05 treatment for the full treatment period

CC[C@@H]1/C=C(\C)C[C@H](C)C[C@H](OC)[C@H]2O[C@@](O)(C(=O)C(=O)N3CCCC[C@H]3C(=O)O[C@H](/C(C)=C/C3CC[C@@H](O)[C@H](OC)C3)[C@H](C)[C@@H](O)C/C1=N/NC(=O)OC)[C@H](C)C[C@@H]2OC (some centres unmarked) [JH-FK-08]
MIC/MEC ([2]; strain C21F2 (JEC21 CNB1-1)): >25 µg/mL | MIC/MEC ([2]; strain C21F3 (JEC21 frr1)): >25 µg/mL | MIC/MEC ([2]; strain JEC21): <0.4 µg/mL | survival compared to vehicle/untreated ([3]; 2 weeks twice daily i.p. 40 mg/kg, 40 mg/kg): more than doubled median survival; also recorded: more than double murine survival time | median survival ([3]; 2 weeks twice daily i.p., fluconazole 6 mg/kg, JH-FK-08 40 mg/kg, vehicle 16 days): 33 days | combination effect with fluconazole ([3]; in vivo): additive activity in combination with fluconazole in vivo

C=CCC1C=C(C)CC(C)CC(OC)C2OC(O)(C(=O)C(=O)N3CCCCC3C(=O)OC(C(C)=CC3CCC(O)C(OC)C3)C(C)C(O)CC1=O)C(C)CC2OC (centres unmarked) [FK506, reference compound]
resistance of hFKBP12-expressing strain [4]: completely resistant
